Values quoted from earlier work in patent US20250122241A1, “CYCLIC PEPTIDE IMMUNOMODULATORS” (BRISTOL-MYERS SQUIBB COMPANY, priority 2021, published 2025).

Details: oral administration; extensive first-pass metabolism in the liver

With `CCCC1O[C@@H]2C[C@H]3[C@@H]4CCC5=CC(=O)C=C[C@]5(C)[C@H]4[C@@H](O)C[C@]3(C)[C@]2(C(=O)CO)O1` (stereo partly shown) [budesonide] as the compound, how does the bioavailability read?
Its bioavailability is “about 10%”.
